Columns and labels:
[1] = tested on: HIV Gag protein (Gag-p24); experiment: Intracellular Gag by p24 ELISA and western blot in LC5-RIC cells; format: cell-based; conditions: HIV-1LAI, 48 h
Description: LC5-RIC cells were plated, treated with compounds and inoculated with virus as described for Alu-PCR above. Cells were harvested, washed with PBS and incubated in 200 µl of PBS + 5% Triton X-100 for 5 min at room temperature. Cell lysates were centrifuged for 5 min at 400 g, supernatants collected, diluted 1:10,000 and Gag-p24 was detected by p24 Antigen Capture Assay (ABLinc) according to the manufacturer’s protocol.
Western blot analysis for Gag-p24 and GAPDH was performed as described in[48], using the primary antibodies anti-hGAPDH (ThermoFisher Scientific) and anti-HIV-p24 (Calbiochem) as well as the secondary anti-mouse-peroxidase antibody (Jackson ImmunoResearch), all diluted 1:10,000. Bands were visualized by enhanced chemiluminescence and detected by Fusion FX Chemiluminescence detector. Resulting blot images were processed with Fusion FX Software (adjusting brightness and contrast) and Microsoft PowerPoint (labelling and cropping).

[2] = molecular target: T1, recombinant HIV-1 Protease (Human immunodeficiency virus type 1 group M subtype B, UniProt P04585); experiment: HIV Protease Activity Assay (fluorogenic substrate); format: biochemical; conditions: 10 µM
T1 construct: 100 ng recombinant HIV-1 Protease protein (Abcam) was incubated with compounds; purchased Abcam
Description: HIV Protease Activity Assay. 100 ng recombinant HIV-1 Protease protein (Abcam) was incubated with compounds diluted in HIV Protease Activity Assay Buffer (0.1 M sodium acetate, 1.0 M sodium chloride, 1.0 mM ethylenediaminetetraacetic acid (EDTA), 1.0 mM dithiothreitol (DTT), 10% dimethyl sulfoxide (DMSO), 1 mg/ml bovine serum albumin (BSA), pH 7.4) for 1 h at room temperature in the dark. After the designated incubation time the mixtures were added to a 2.5 µM solution of HIV Protease Substrate 1 (Sigma-Aldrich) in HIV Protease Activity Assay Buffer prepared in black 96-well plates. The substrate harbours the fluorophore EDANS (5-(2-aminoethylamino)-1-naphthalene sulfonate) and the acceptor chromophore DABCYL (4’-dimethylaminoazobenzene-4-carboxylate) on opposite sides of the cleavage site (Tyr-Pro). Cleavage of the substrate by the HIV-1 protease results in separation of DABCYL and EDANS, eliminating the quenching effects on EDANS fluorescence at 490 nm. After an additional incubation time of 20 min at 37 °C the increase in fluorescence was measured using a fluorescence microplate reader at an excitation filter wavelength of 340 nm and an emission filter wavelength of 490 nm. Saquinavir was used as reference compound.

[3] = tested on: HIV-1V13-03413B; experiment: Inhibition of multi-drug-resistant clinical isolate HIV-1 V13-03413B in PBMCs; format: cell-based, HIV-type 1; conditions: Human immunodeficiency virus 1, PBMC
Excerpt: (§1) Clinical isolates represented the following HIV genotypes: HIV-1MMVP899-87: HIV-type 1, Major group; HIV-1OMVP5180-91: HIV-type 1, Outlier group; HIV-2MVP10668-93: HIV-type 2; HIV-1V13-03413B: HIV-type 1, Major group/B-clade, isolate with multiple drug-resistance mutations. Depicted are the means of three independent experiments with biological triplicates (n = 3; m = 3) and standard deviations (SD).
(§2) Isolation of primary clinical HIV-isolates HIV-1MMVP899-87, HIV-1OMVP5180-91, HIV-1V13-03413B and HIV-2MVP10668-93 is described in[43]. The HIV-1 M group/B-clade isolate (HIV-1V13-03413B) was isolated from a patient with virological treatment failure. Clinical isolates were produced from HIV infected H9 cells as described.
(§3) To evaluate anti-HIV efficacies of test compounds in primary human target cells, stimulated PBMCs were seeded in 96-well plates at a density of 500,000 cells per well, different #7concentrations of the compound (serial dilutions) and virus inoculum (MOI of 0.5) added to the PBMCs and cultures incubated for 48 h. Infectious virus production was quantified by transferring 35 µl of supernatant from the PBMC cultures to LC5-RIC cells, seeded in black 96-well plates one day earlier. LC5-RIC cultures were then incubated for 72 h and analysed for DsRed1 reporter expression and anti-HIV activity calculated as described for the EASY-HIT assay.

[4] = tested on: HIV-1LAI; experiment: Photostability of anti-HIV activity (24 h illumination vs dark, EASY-HIT read-out); format: cell-based; conditions: 24 h illumination vs same compound kept in the dark; compounds at IC90; LC5-RIC
Description: Figure 1 Profiling of photostability of anti-HIV activity of Aureothin and synthetic Aureothin-derivatives. Anti-HIV activity of compound samples illuminated for 24 h were normalised to anti-HIV activity of samples of the same compound kept in the dark. Anti-HIV activity was measured by quantifying the amounts of infectious virus produced by HIV-1LAI exposed LC5-RIC cells treated with compounds at IC90 concentrations (Supplementary Table S1). […] Shown are means of at least three independent experiments with biological triplicates (n ≥ 3; m = 3) and the standard error of the mean (SEM) indicated.
LC5-RIC cells were plated as described for the EASY-HIT assay. […] Plates were incubated either in the dark or under constant illumination with a commercially available desk lamp (2X Philips Master PL-S-9W/840/2 P, 30 cm between light source and compounds) for 24 h at room temperature. For analysis of anti-HIV activity, compound samples were transferred to LC5-RIC cells and their anti-HIV activity determined by measuring compound effects on infectious virus production with the EASY-HIT assay. Relative photostability was calculated by normalizing the anti-HIV activity of the illuminated compounds to the antiviral activity of compounds kept in the dark.

[5] = tested on: HIV-1MMVP899-87; experiment: Inhibition of clinical isolate HIV-1M MVP899-87 in PBMCs; format: cell-based; conditions: PBMC
Excerpt: as §1, §2, §3

In the case of COc1oc(C2C/C(=C/C(C)=C/c3ccc(C(F)(F)F)cc3)CO2)c(C)c(=O)c1C (stereo not shown) [compound #7], the “intracellular Gag levels” value [1] is reported as “strongly suppressed production of Gag”, the “inhibitory effect on Protease activity” value [2] is reported as “no inhibitory effects” and the IC50 ([3]; read-out: IC50 value, HIV-1 V13-03413B) is reported as 4.2 nM. For the same molecule, the IC90 ([3]; read-out: IC90 value, HIV-1 V13-03413B) was 10.5 nM, the “anti-HIV activity retained after exposure to light” value [4] was “over 95%” and the IC50 ([5]; read-out: IC50 value, HIV-1M MVP899-87, HIV-type 1, Major group) was 4.11 nM. It also gave an IC90 ([5]; read-out: IC90 value, HIV-1M MVP899-87, HIV-type 1, Major group) of 12.3 nM.
